Results taken from US7579343B2, “Pyrrolo-thiazines and processes for the preparation and use thereof” (Board of Trustees of Michigan State University, priority 2005, dated 2009).

Legend:
β-ribosidase [1] = test: β-ribosidase inhibition assay with DHF-riboside substrate, bacterial lysate; type: biochemical, Salmonella sp.35664; details: for threshold value for the inhibitor concentration over which no inhibition is observed: lysate of Salmonella sp.35664, DHF-riboside, over a 24 hour period
Description: (§1) The hydrolysis of β-riboside under catalysis by β-ribosidases features an oxocarbenium ion transition state, similar to nucleoside hydrolases, nucleoside phosphorylases and related enzymes. The β-ribosidase inhibitory properties of 6, 7 and 8 were evaluated using 3′,4′-dihydroxyflavone-4′-β-D-ribofuranoside 16 (DHF-riboside) as the substrate and bacterial lysates or whole cells as the source of β-ribosidase. The hydrolysis of this chromogenic substrate can be catalyzed by β-ribosidases to release 3′,4′-dihydroxyflavone, which forms a highly colored chelate with iron.^23
(§2) Compounds 6-8 were evaluated for their ability to inhibit the action of β-ribosidases produced by Gram negative bacteria. There are no commercially available β-ribosidases and it is the usual course to use intrinsic ribosidase activities from actual bacteria or bacterial cell lysates. Ribosidase inhibition assays were performed using Salmonella sp.35664 to produce β-ribosidase enzymes. Both whole cells and lysed bacteria were tested. Ribosidase activity is indicated by a purple color formed by complexation of the freed phenol with ferric ions. FIGS. 7A and 7B are (7A) absorbance of the assay mixture produced by a lysate of Salmonella sp.35664 with 3′,4′-dihydroxyflavone-4′-β-D-ribofuranoside in the presence of 6 in concentrations from 0 to 15 μg/μL over a 24 hour period. (7B) Absorbance of the assay mixture in the presence of 7. Note that the differences in inhibition between the two are marginal at higher inhibitor concentrations. Note also that in both cases there is a threshold value of 0.9 μg/μL for the inhibitor concentration over which no inhibition is observed. The more inhibition of the enzyme, the less cleavage of the substrate.
(§3) Inhibitory potency was determined by spectrophotometrically measuring the residual hydrolytic activities of the bacterial produced β-ribosidase 2. The bacterium used to produce β-ribosidase was Salmonella sp.35664, both whole cell and lysed strains. 3′,4′-Dihydroxyflavone-4′-β-D-ribofuranoside 15 (DHF-riboside) was used as substrate. The assay was performed in a PBS buffer at pH 7.0, 37° C. Serial dilutions were made of the inhibitors to a final concentration of 0.2μg/μL to 15μg/μL in each assay solution. The strain was grown to mid exponential phase and removed from the media and rediluted in PBS buffer. Inhibition studies were performed by adding each strain to the respective buffer solutions along with DHF-riboside, ferric ammonium citrate and inhibitors. For compound 6 and 7, 10% DMSO solution was used to increase the solubility. The solutions were incubated at 37° C. and the absorbance of the complex formed between released 3′,4′-dihydroxyflavone and iron was determined at 387 nm at time 15 min, 30 min, 45 min, 60 min, 75 min, 90 min, 105 min, 2 hours, 2.5 hours, 3.0. hours, 4.0. hours, 4.5 hours, 5 hours, 20 hours, and 24 hours.

E. faecalis 51299 = test: antibacterial activity, standard MIC testing procedure; type: cell-based
Description: (§4) It was assayed according to the standard MIC testing procedure for antimicrobials.

S. aureus 43300 = test: as above; type: cell-based
Description: as §4

E. faecalis 29212 = test: as above; type: cell-based
Description: as §4

β-ribosidase [2] = test: β-ribosidase inhibition assay with DHF-riboside substrate, whole cells; type: cell-based, Salmonella sp.35664
Description: as §1, §2
In the case of compound 7, no inhibition is also observed for the 3.8 μg/μL inhibitor concentration. There are only minor differences for the inhibitory properties of the two compounds at the higher concentrations.
as §3

SMILES | β-ribosidase inhibition activity (in words) (β-ribosidase [1]; lysate) | inhibition at 0.49 µg/mL (E. faecalis 51299; Enterococcus faecalis, 51299, 0.49 μg/ml, read-out: inhibition of bacterial growth) | antibacterial activity (in words) (E. faecalis 51299; initial dilute concentration) | inhibition at 0.49 µg/mL (S. aureus 43300; Staphylococcus aureus, 43300, 0.49 μg/ml, read-out: inhibition of bacterial growth) | antibacterial activity (in words) (S. aureus 43300; initial dilute concentration) | inhibition at 0.49 µg/mL (E. faecalis 29212; Enterococcus faecalis, 29212, 0.49 μg/ml, read-out: inhibition of bacterial growth) | antibacterial activity (in words) (E. faecalis 29212; initial dilute concentration) | β-ribosidase inhibition activity (in words) (β-ribosidase [2]; whole cell) | concentration at which fifty percent inhibition was observed (β-ribosidase [1]; lysate) | threshold value for the inhibitor concentration over which no inhibition is observed (β-ribosidase [1]) | inhibition of β-ribosidases (β-ribosidase [1]; lysate, 15 μg/μL (67 mM), at 24 hours) | concentration at which fifty percent inhibition was observed (β-ribosidase [2]; whole cell) | inhibition of β-ribosidases (β-ribosidase [2]; whole cell, 15 μg/μL (67 mM), at 24 hours) | inhibition at 3.8 μg/μL inhibitor concentration (β-ribosidase [2]; whole cells, 3.8 μg/μL)
O[C@H]1[C@@H](O)CN2CCSC[C@@H]12 [Compound 8, 7(S)-8(R),9(S)-dihydroxy-hexahydro-1H-pyrrolo-[1,4]-thiazine] | no significant inhibition | 50% | good inhibition | 70% | good inhibition | 50% | good inhibition | no significant inhibition |  |  |  |  |  | 
O[C@H]1[C@@H](O)CN2c3ccccc3SC[C@@H]12 [Compound 6, 2(S),3(R),4(S)-dihydroxy-2,3,3a,4-tetrahydro-1H-pyrrolo-[2,1-c][1,4]benzothiazine] |  |  |  |  |  |  |  | good inhibitory activity | 7.5 µg/µL | 0.9 µg/µL | About 70% | 7.5 µg/µL | About 70% | 
O[C@@H]1[C@H]2CSc3ccccc3N2C[C@@H]1O [Compound 7, 2(R)-3(R),4(S)-dihydroxy-2,3,3a,4-tetrahydro-1H-pyrrolo-[2,1-c][1,4]benzothiazine] | comparable |  |  |  |  |  |  | comparable |  | 0.9 µg/µL |  |  |  | no inhibition
